Experimental data taken from patent US20050107270A1, “Alkyl ethanolamines for the control of mycobacteria in functional fluid” (priority 2003, published 2005).

Key:
Format in all cases: cell-based
[1] = test system: Mycobacterium marinum (ATCC # 927); assay: Mycobacterium marinum growth control, optical absorbance at 660 nm (Example 3); conditions: 72 hours
Method: The impact of these N-alkyl alkanolamines on the control of the bacterial species Mycobacterium marinum (ATCC # 927) is given in Table 3. Bacterial concentration in the experimental media was monitored indirectly via optical absorbance at 660 nm. The values reported are end-point optical densities in milliOD units after 72 hours. The media consisted of a standardized solution of clear nutrient broth (Middlebrook 7H 10 with OADC supplement), amine, buffer (Tris) and water. The pH was adjusted initially to 8.5 with Tris buffer. The first column in Table 3 gives the amine concentration in parts per million by weight. In all cases, the values are averages of at least three replicates. The final row of Table 3 gives an estimate of the concentration range in which the amine in question starts to inhibit the growth of this bacterial species (minimum inhibitor concentration MIC).

[2] = test system: Mycobacterium smegmatis (ATCC # 19420); assay: Mycobacterium smegmatis growth control, optical absorbance at 660 nm (Example 2); conditions: 48 hours
Method: The impact of these N-alkyl alkanolamines on the control of the bacterial species Mycobacterium smegmatis (ATCC # 19420) is given in the Table 2. Bacterial concentration in the experimental media was monitored indirectly via optical absorbance at 660 nm. The values reported are end-point optical densities in milliOD units after 48 hours. The media consisted of a standardized solution of clear nutrient broth (Middlebrook 7H10 with OADC supplement), amine, buffer (Tris) and water. The pH was adjusted initially to 8.5 with Tris buffer. The first column in the Table gives the amine concentration in parts per million by weight. The final two columns give data for cells that also contained 2 grams per liter of boric acid. In all cases, the values are averages of at least three replicate runs. The final row of Table 2 gives an estimate of the concentration range in which the amine in question starts to inhibit the growth of this bacterial species (minimum inhibitor concentration MIC).

[3] = test system: Mycobacterium smegmatis (ATCC # 19420); assay: Mycobacterium smegmatis growth control, optical absorbance at 590 nm with tetrazolium dye (Example 1); conditions: compared with AMP (2-amino-2-methyl-1-propanol)
[4] = with 2 grams per liter of boric acid

SMILES | MIC (minimum inhibitor concentration), estimated concentration range in which the amine starts to inhibit growth [1] | MIC (minimum inhibitor concentration), estimated concentration range in which the amine starts to inhibit growth ([2]; no boric acid) | MIC (minimum inhibitor concentration), estimated concentration range in which the amine starts to inhibit growth [2, 4] | effectiveness against Mycobacteria, in words [3]
CCCCNCCO [BAE, butylaminoethanol] | >4000 ppm |  |  | 
C1CCC(NC2CCCCC2)CC1 [DCHA, Dicyclohexylamine, reference compound] | >4000 ppm | 1500-2000 ppm | 1000-2000 ppm | 
CCCCCCCCNCCO [OAE, octylaminoethanol] | 1200-2000 ppm | <500 ppm | <500 ppm | markedly more effective than AMP
CCCCCCCCN(CCO)CCO [ODEA, Octyldiethanolamine] | 1200-2000 ppm | 500-1000 ppm |  | 
